From patent publication US9550785B2, “Pyrrolopyrimidines as therapeutic agents for the treatment of diseases” (GlaxoSmithKline LLC, priority 2012, dated 2017)
Structures can show the parent of a compound that is named as a salt.

Key:
[1] = test system: TNF-α; assay: Induction of TNF-α using fresh human whole blood (WB); type: cell-based; details: three donors, overnight incubation, cytokine released as percentage of 2 μM resiquimod control, read-out: mean pEC50 for TNF-α (converted)
Procedure: (§1) Assay for the Induction of Interferon-α and TNF-α Using Fresh Human Whole Blood (WB)
(§2) Compounds were prepared at 100× required concentration in DMSO in flat-bottom microtitre plates at a volume of 1.5 μL. Columns 1-10 contained a 1 in 4 serial dilution of the test compound. Included on each plate was a serial dilution of the TLR7/8 agonist resiquimod as a standard and Column 11 contained 1.5 μl of 200 μM resiquimod (giving a 2 μM final concentration, used to define the approximate maximal response to resiquimod). Each compound was assayed in duplicate for each donor.
(§3) Blood samples from three human donors were collected into sodium heparin (10 U/ml). 150 μl of whole Blood was dispensed into Col 1 to 11 of assay plates containing 1.5 μl of test compound or standard in DMSO. Plates were placed in an incubator overnight (37° C., 95% air, 5% CO2). Following the overnight incubation, plates were removed from the incubator & mixed on an orbital shaker for approximately 1 minute. 100 μl of 0.9% saline was added to each well and the plates mixed again on an orbital shaker. Plates were then centrifuged (2500 rpm, 10 mins), after which a sample of plasma was removed using a Biomek FX and assayed for both IFN-α and TNF-α using the MSD (Mesoscale Discovery) electrochemiluminescence assay platform. The IFN-α assay was carried out similarly to that described above. The TNF-α assay was carried out as per kit instructions (Cat No K111BHB).
(§4) Cytokine released was expressed as a percentage of the 2 μM resiquimod control (column 11). This percentage was plotted against compound concentration and the pEC50 for the response determined by non-linear least squares curve fitting. For the IFN-α responses, generally a 4 parameter logistic model was selected. For the TNF-α responses where a clear maximum response was obtained (i.e. a well defined plateau in the response was observed) then a 4 parameter model was generally used. […]

[2] = test system: Interferon-α; assay: Induction of Interferon-α using fresh human whole blood (WB); type: cell-based; details: three donors, overnight incubation, cytokine released as percentage of 2 μM resiquimod control, read-out: mean pEC50 for INF-α (converted)
Procedure: as §1, §2, §3, §4

EC50 [1] [µM] | EC50 [2] [µM] | SMILES
≤ 10 | ≤ 0.398 | CCCCc1nc(N)c2[nH]cc(CCCC3CCNCC3)c2n1 [Example 1, 2-Butyl-7-(3-(piperidin-4-yl)propyl)-5H-pyrrolo[3,2-d]pyrimidin-4-amine formate]
≤ 10 | ≤ 0.398 | CCCCc1nc(N)c2[nH]cc(CCCC3CCN(C(C)C)CC3)c2n1 [Example 2, 2-Butyl-7-(3-(1-isopropylpiperidin-4-yl)propyl)-5H-pyrrolo[3,2-d]pyrimidin-4-amine]
≤ 10 | ≤ 0.398 | CCCCc1nc(N)c2[nH]cc(CCC3CCNCC3)c2n1 [Example 3, 2-Butyl-7-(2-(piperidin-4-yl)ethyl)-5H-pyrrolo[3,2-d]pyrimidin-4-amine]
